Test results taken from paper PMC9024977, “In Vitro and In Silico Studies of Human Tyrosyl-DNA Phosphodiesterase 1 (Tdp1) Inhibition by Stereoisomeric Forms of Lipophilic Nucleosides: The Role of Carbohydrate Stereochemistry in Ligand-Enzyme Interactions” (Molecules, 2022).

Legend:
Tdp1 [1] = target: T1, Tdp1 (Homo sapiens, UniProt Q9NUW8); assay: Real-time detection of Tdp1 activity (oligonucleotide biosensor, FAM/BHQ1); type: biochemical; parameters: key to Eut/Dis: The stereoisomer with the greater inhibitory activity is termed the eutomer (Eut); that with the lower activity, the distomer (Dis); conditions: for IC50: 1.5 nM Tdp1, 50 nM biosensor, 26 °C, three independent experiments; for ER (eudismic ratio): IC50 (Eutomer)/IC50 (Distomer); for ER (eudismic ratio) / EI (eudismic index): per stereoisomer pair; for Eut/Dis: eutomer or distomer within the stereoisomer pair; for EI (eudismic index): −logER
Protocol: The measurement of Tdp1 inhibition was performed using a real-time oligonucleotide biosensor based on the capability of Tdp1 to remove fluorophore quenchers from the 3′-end of DNA [31]. The single-stranded Tdp1 substrate was a 16-mer oligonucleotide containing a 5′-FAM (6-carboxyfluorescein) fluorophore donor and a 3′-BHQ1 quencher (black hole quencher 1). When a quencher is removed by Tdp1, FAM fluorescence flares up and can be detected by a fluorimeter. In the presence of an inhibitor, fluorescence intensity decreases. The obtained Tdp1 activity versus inhibitor concentration curves were used to calculate IC50 values. We also studied other structurally related compounds, such as optically active benzoylated arabinofuranose and ribofuranose to ascertain the influence of a heterocyclic base on biological activity (Table 1).
Real-time detection of Tdp1 activity was reported in our previous work. This approach involves measuring the fluorescence intensity during the reaction of quencher removal from a fluorophore-quencher coupled to a DNA-oligonucleotide catalyzed by Tdp1 in the presence of inhibitor (the control samples contained 1% DMSO). Reaction mixtures ([…]) contained Tdp1 buffer (50mM Tris-HCl, pH 8.0, 50mM NaCl, 7mM β-mercaptoethanol), 50 nM biosensor, testable inhibitor, and purified Tdp1 (1.5 nM). The biosensor was a single-stranded oligonucleotide (5′-[FAM] AAC GTC AGGGTC TTC C [BHQ]-3′) containing a fluorophore at the 5′-end (5,6-FAM) and black hole quencher 1 (BHQ) at the 3′-end that was synthesized in the Laboratory of nucleic acid chemistry at the Institute of Chemical Biology and Fundamental Medicine, Novosibirsk, Russia. The reactions were incubated at a constant temperature of 26 °C in a POLARstar OPTIMA fluorimeter (BMG LABTECH, GmbH, Soest, Germany) set to measure fluorescence every 55 s (Ex485/Em520 nm) during the linear phase (from 0 to 8 min). The values for half maximal inhibitory concentration (IC50) were determined using a six-point concentration response curve in three independent experiments and calculated using MARS Data Analysis 2.0 (BMG LABTECH, Soest, Germany).

recombinant human Tdp1 = assay: Steady-state kinetic analysis of Tdp1 enzymatic reaction; type: biochemical; conditions: from dependence of Vmax and KM on inhibitor concentration
Protocol: To confirm the interaction model obtained by molecular docking, the type of inhibition by compounds 3D, 3L, 7R, and 7S was determined by a steady-state kinetic assay. During the experiment, dependence curves of the enzymatic reaction rate (V) on substrate concentration (S) in the presence of different concentrations of the inhibitors were obtained (Figures S36–S39 in Supplementary Materials). The apparent Michaelis constant (KM) and the maximum reaction rate (Vmax) were calculated according to the Michaelis–Menten equation. Conclusions about the type of inhibition were made from the characteristics of the dependence of Vmax and KM on the concentration of the inhibitor.
To determine the apparent maximum rate of enzymatic reaction (Vmax), Michaelis constant (KM), and possible inhibition mechanism, steady-state kinetic experiments were carried out at five fixed concentrations for the substrate with various inhibitor concentrations. The standard reaction mixtures (200 μL) contained 50 nM, 100 nM, 200 nM, 500 nM, or 1000 nM substrate, testable inhibitor, 1.5 nM recombinant human Tdp1, and reaction buffer components (50 mM Tris-HCl, pH 8.0, 50 mM NaCl, 7 mM β-mercaptoethanol). After the addition of the enzyme, the reaction mixtures were incubated at a constant temperature of 26 °C and measured in a POLARstar OPTIMA fluorimeter (BMG LABTECH, GmbH) set to measure fluorescence every 55 s (Ex485/Em520 nm) during the linear phase (0 to 8 min). The initial data (kinetic curves) were obtained in three independent experiments and statistically processed with OriginPro 8.6.0 software.

Tdp1 [2] = target: T1, Tdp1; assay: Fluorescence anisotropy assay; type: binding; conditions: FAM-labeled DNA with Tdp1, increasing inhibitor concentration
From the text: To clarify the mechanism of action of this compound, the change in the fluorescence anisotropy during the Tdp1 catalytic reaction was studied. This method is based on the ability of fluorescent molecules to be excited by plane-polarized light when their dipole moment is parallel to the plane of polarization. If such a molecule is unable to rotate in space, then the emitted light will be polarized following excitation. Conversely, if the molecule can rotate, then the emitted light is “depolarized”. The minimum anisotropy value corresponds to FAM-labeled DNA (Figure S40, gray graph). When Tdp1 was added, the anisotropy increased due to the binding of the DNA by the enzyme, which prevents its free rotation (Figure S40, red graph).
This means that the inhibitor can bind to the active site of Tdp1 instead of the DNA substrate, thereby reducing the activity of the enzyme by competitive inhibition. This is consistent with the data obtained in the kinetic studies. […] Thus, a competitive component is present when Tdp1 is inhibited by compound 7R; however, this process is more complicated and requires further study with other methods.

T1 sequence (Q9NUW8 whole entry): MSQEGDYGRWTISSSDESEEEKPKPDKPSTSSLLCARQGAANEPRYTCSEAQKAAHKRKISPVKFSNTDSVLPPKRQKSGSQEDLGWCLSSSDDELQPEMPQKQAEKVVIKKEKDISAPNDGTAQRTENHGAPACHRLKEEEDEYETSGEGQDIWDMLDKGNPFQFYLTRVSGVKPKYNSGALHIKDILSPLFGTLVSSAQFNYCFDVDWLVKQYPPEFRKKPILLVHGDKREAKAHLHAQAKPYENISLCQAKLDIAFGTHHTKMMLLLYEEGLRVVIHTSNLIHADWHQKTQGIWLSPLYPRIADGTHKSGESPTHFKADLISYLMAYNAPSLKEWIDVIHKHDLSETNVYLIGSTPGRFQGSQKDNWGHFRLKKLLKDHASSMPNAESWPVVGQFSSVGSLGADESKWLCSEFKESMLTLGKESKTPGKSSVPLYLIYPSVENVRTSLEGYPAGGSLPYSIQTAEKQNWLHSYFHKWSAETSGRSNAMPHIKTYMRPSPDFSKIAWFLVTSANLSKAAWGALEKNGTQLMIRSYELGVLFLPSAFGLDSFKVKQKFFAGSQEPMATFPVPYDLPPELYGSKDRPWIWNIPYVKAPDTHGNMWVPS

CO[C@H]1O[C@H](COC(=O)c2ccccc2)[C@@H](OC(=O)c2ccccc2)[C@@H]1OC(=O)c1ccccc1 [Compound 1D, 1-O-methyl-2,3,5-tri-O-benzoyl-α-D-arabinofuranose]
IC50 (Tdp1 [1]): 2.3 ± 0.6 µM | ER (eudismic ratio) (Tdp1 [1]): 0.343 | Eut/Dis (Tdp1 [1]): Eut | EI (eudismic index) (Tdp1 [1]): 0.465

CO[C@@H]1O[C@@H](COC(=O)c2ccccc2)[C@H](OC(=O)c2ccccc2)[C@H]1OC(=O)c1ccccc1 [Compound 1L, 1-O-methyl-2,3,5-tri-O-benzoyl-α-L-arabinofuranose]
IC50 (Tdp1 [1]): 6.7 ± 1.9 µM | ER (eudismic ratio) (Tdp1 [1]): 0.343 | Eut/Dis (Tdp1 [1]): Dis | EI (eudismic index) (Tdp1 [1]): 0.465

CC(=O)O[C@@H]1O[C@H](COC(=O)c2ccccc2)[C@@H](OC(=O)c2ccccc2)[C@H]1OC(=O)c1ccccc1 [Compound 2D, 1-O-Acetyl-2,3,5-tri-O-benzoyl-β-D-ribofuranose]
ER (eudismic ratio) (Tdp1 [1]): 0.808 | Eut/Dis (Tdp1 [1]): Eut | EI (eudismic index) (Tdp1 [1]): 0.09

CC(=O)O[C@H]1O[C@@H](COC(=O)c2ccccc2)[C@H](OC(=O)c2ccccc2)[C@@H]1OC(=O)c1ccccc1 [Compound 2L]
IC50 (Tdp1 [1]): 5.2 ± 0.2 µM | ER (eudismic ratio) (Tdp1 [1]): 0.808 | Eut/Dis (Tdp1 [1]): Dis | EI (eudismic index) (Tdp1 [1]): 0.09

O=C(OC[C@H]1O[C@@H](n2ccc(=O)[nH]c2=O)[C@H](OC(=O)c2ccccc2)[C@@H]1OC(=O)c1ccccc1)c1ccccc1 [Compound 3D, 2′,3′,5′-tri-O-benzoyl-D-uridine]
type of inhibition (recombinant human Tdp1): uncompetitive | IC50 (Tdp1 [1]): 3.8 ± 0.4 µM | ER (eudismic ratio) (Tdp1 [1]): 0.745 | Eut/Dis (Tdp1 [1]): Eut | EI (eudismic index) (Tdp1 [1]): 0.128

O=C(OC[C@@H]1O[C@H](n2ccc(=O)[nH]c2=O)[C@@H](OC(=O)c2ccccc2)[C@H]1OC(=O)c1ccccc1)c1ccccc1 [Compound 3L, 2′,3′,5′-tri-O-benzoyl-L-uridine]
type of inhibition (recombinant human Tdp1): uncompetitive | IC50 (Tdp1 [1]): 5.1 ± 0.1 µM | ER (eudismic ratio) (Tdp1 [1]): 0.745 | Eut/Dis (Tdp1 [1]): Dis | EI (eudismic index) (Tdp1 [1]): 0.128

Cc1cn([C@@H]2O[C@H](COC(=O)c3ccccc3)[C@@H](OC(=O)c3ccccc3)[C@H]2OC(=O)c2ccccc2)c(=O)[nH]c1=O [Compound 4D, 1-(2,3,5-Tri-O-benzoyl-β-D-ribofuranosyl)thymine]
ER (eudismic ratio) (Tdp1 [1]): 0.108 | Eut/Dis (Tdp1 [1]): Eut | EI (eudismic index) (Tdp1 [1]): 0.967

Cc1cn([C@H]2O[C@@H](COC(=O)c3ccccc3)[C@H](OC(=O)c3ccccc3)[C@@H]2OC(=O)c2ccccc2)c(=O)[nH]c1=O [Compound 4L, 2′,3′,5′-tri-O-benzoyl-L-ribothymidine]
IC50 (Tdp1 [1]): 25 ± 1 µM | ER (eudismic ratio) (Tdp1 [1]): 0.108 | Eut/Dis (Tdp1 [1]): Dis | EI (eudismic index) (Tdp1 [1]): 0.967

C[C@@H](OC(=O)c1ccccc1)[C@H]1O[C@@H](n2c(=O)cc[nH]c2=O)[C@H](OC(=O)c2ccccc2)[C@@H]1OC(=O)c1ccccc1 [Compound 5R, 3-[5(R)-C-methyl-2,3,5-O-tribenzoyl-β-D-ribofuranosyl]uracil]
IC50 (Tdp1 [1]): 3.1 ± 0.2 µM | ER (eudismic ratio) (Tdp1 [1]): 0.871 | Eut/Dis (Tdp1 [1]): Dis | EI (eudismic index) (Tdp1 [1]): 0.06

C[C@H](OC(=O)c1ccccc1)[C@H]1O[C@@H](n2c(=O)cc[nH]c2=O)[C@H](OC(=O)c2ccccc2)[C@@H]1OC(=O)c1ccccc1 [Compound 5S, 3-[5(S)-C-methyl-2,3,5-tri-O-benzoyl-β-D-ribofuranosyl]uracil]
IC50 (Tdp1 [1]): 2.7 ± 0.2 µM | ER (eudismic ratio) (Tdp1 [1]): 0.871 | Eut/Dis (Tdp1 [1]): Eut | EI (eudismic index) (Tdp1 [1]): 0.06

C[C@@H](OC(=O)c1ccccc1)[C@H]1O[C@@H](n2ccc(N)nc2=O)[C@H](OC(=O)c2ccccc2)[C@@H]1OC(=O)c1ccccc1 [Compound 6R, 1-[5(R)-C-methyl-2,3,5-tri-O-benzoyl-β-D-ribofuranosyl]cytosine]
IC50 (Tdp1 [1]): 5.8 ± 0.5 µM | ER (eudismic ratio) (Tdp1 [1]): 0.896 | Eut/Dis (Tdp1 [1]): Dis | EI (eudismic index) (Tdp1 [1]): 0.048

C[C@H](OC(=O)c1ccccc1)[C@H]1O[C@@H](n2ccc(N)nc2=O)[C@H](OC(=O)c2ccccc2)[C@@H]1OC(=O)c1ccccc1 [Compound 6S, 1-[5(S)-C-methyl-2,3,5-tri-O-benzoyl-β-D-ribofuranosyl]cytosine]
IC50 (Tdp1 [1]): 5.2 ± 0.8 µM | ER (eudismic ratio) (Tdp1 [1]): 0.896 | Eut/Dis (Tdp1 [1]): Eut | EI (eudismic index) (Tdp1 [1]): 0.048

C[C@@H](OC(=O)c1ccccc1)[C@H]1O[C@@H](n2cnc3c(NC(=O)c4ccccc4)ncnc32)[C@H](OC(=O)c2ccccc2)[C@@H]1OC(=O)c1ccccc1 [Compound 7R, 5′(R)-C-methyl-2′,3′,5′-tri-O-benzoyl-N^6-benzoyladenosine]
type of inhibition (recombinant human Tdp1): uncompetitive at low inhibitor concentrations and mixed at high | IC50 (Tdp1 [1]): 4.4 ± 0.8 µM | ER (eudismic ratio) (Tdp1 [1]): 0.956 | Eut/Dis (Tdp1 [1]): Eut | EI (eudismic index) (Tdp1 [1]): 0.0193

C[C@H](OC(=O)c1ccccc1)[C@H]1O[C@@H](n2cnc3c(NC(=O)c4ccccc4)ncnc32)[C@H](OC(=O)c2ccccc2)[C@@H]1OC(=O)c1ccccc1 [Compound 7S, 5′(S)-C-methyl-2′,3′,5′-tri-O-benzoyl-N^6-benzoyladenosine]
change in fluorescence anisotropy (Tdp1 [2]): decreased with an increasing concentration of the inhibitor | type of inhibition (recombinant human Tdp1): competitive | IC50 (Tdp1 [1]): 4.6 ± 0.9 µM | ER (eudismic ratio) (Tdp1 [1]): 0.956 | Eut/Dis (Tdp1 [1]): Dis | EI (eudismic index) (Tdp1 [1]): 0.0193

O=c1ccn([C@@H]2O[C@H](CO)[C@@H](O)[C@H]2O)c(=O)[nH]1 [Compound 8D]
IC50 (Tdp1 [1]): > 50 µM

O=c1ccn([C@H]2O[C@@H](CO)[C@H](O)[C@@H]2O)c(=O)[nH]1 [Compound 8L]
IC50 (Tdp1 [1]): > 50 µM
